Source: patent US20110003865A1, “NOVEL 2-DIETHYLAMINO-3-AMIDO-6-AMINO-PYRIDINE DERIVATIVES USEFUL AS POTASSIUM CHANNEL ACTIVATORS” (priority 2007, published 2011)

Biological target: T1, human Kv72+3 channels (Homo sapiens, UniProt O43525+O43526)
T1 construct: expressed in transfected cells; host or cells: HEK293
Assay: Patch-clamp, HEK293 cells stably expressing human Kv7.2+3 channels
Type: cell-based
Details: conc. 0.03 μM, −30 mV, 20 ms; current relative to baseline current defined as 100%
Excerpt: The effect obtained by these channel activators is described as a percentage increase in baseline current at a given concentration. The baseline current is defined as 100%, and an increase in current is expressed relative to this, i.e. an increase from 1 nA to 1.2 nA is reported as 120%.

T1 sequence (O43526 whole entry): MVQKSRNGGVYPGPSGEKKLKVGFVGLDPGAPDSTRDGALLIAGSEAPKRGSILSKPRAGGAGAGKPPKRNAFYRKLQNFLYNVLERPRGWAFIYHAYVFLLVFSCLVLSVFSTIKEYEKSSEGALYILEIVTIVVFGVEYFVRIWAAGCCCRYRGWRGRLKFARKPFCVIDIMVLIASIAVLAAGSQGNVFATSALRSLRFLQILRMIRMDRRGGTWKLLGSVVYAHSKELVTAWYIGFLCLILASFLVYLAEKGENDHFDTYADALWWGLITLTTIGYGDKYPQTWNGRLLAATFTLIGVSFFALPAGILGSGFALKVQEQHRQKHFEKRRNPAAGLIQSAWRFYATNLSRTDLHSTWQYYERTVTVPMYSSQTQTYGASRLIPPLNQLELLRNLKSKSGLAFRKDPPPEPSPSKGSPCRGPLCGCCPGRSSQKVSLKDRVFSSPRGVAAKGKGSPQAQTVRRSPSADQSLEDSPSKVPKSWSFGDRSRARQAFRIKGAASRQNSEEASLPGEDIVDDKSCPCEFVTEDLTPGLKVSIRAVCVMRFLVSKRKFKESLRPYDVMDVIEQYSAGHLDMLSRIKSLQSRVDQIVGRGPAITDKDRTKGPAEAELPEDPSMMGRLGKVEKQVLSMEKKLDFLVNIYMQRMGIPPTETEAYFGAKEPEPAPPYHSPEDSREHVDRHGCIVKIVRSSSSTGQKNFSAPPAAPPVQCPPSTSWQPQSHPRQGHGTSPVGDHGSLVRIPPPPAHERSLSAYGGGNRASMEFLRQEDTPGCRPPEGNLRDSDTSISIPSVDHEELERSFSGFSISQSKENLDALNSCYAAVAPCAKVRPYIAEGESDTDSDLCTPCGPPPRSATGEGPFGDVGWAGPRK
T1 sequence (O43525 whole entry): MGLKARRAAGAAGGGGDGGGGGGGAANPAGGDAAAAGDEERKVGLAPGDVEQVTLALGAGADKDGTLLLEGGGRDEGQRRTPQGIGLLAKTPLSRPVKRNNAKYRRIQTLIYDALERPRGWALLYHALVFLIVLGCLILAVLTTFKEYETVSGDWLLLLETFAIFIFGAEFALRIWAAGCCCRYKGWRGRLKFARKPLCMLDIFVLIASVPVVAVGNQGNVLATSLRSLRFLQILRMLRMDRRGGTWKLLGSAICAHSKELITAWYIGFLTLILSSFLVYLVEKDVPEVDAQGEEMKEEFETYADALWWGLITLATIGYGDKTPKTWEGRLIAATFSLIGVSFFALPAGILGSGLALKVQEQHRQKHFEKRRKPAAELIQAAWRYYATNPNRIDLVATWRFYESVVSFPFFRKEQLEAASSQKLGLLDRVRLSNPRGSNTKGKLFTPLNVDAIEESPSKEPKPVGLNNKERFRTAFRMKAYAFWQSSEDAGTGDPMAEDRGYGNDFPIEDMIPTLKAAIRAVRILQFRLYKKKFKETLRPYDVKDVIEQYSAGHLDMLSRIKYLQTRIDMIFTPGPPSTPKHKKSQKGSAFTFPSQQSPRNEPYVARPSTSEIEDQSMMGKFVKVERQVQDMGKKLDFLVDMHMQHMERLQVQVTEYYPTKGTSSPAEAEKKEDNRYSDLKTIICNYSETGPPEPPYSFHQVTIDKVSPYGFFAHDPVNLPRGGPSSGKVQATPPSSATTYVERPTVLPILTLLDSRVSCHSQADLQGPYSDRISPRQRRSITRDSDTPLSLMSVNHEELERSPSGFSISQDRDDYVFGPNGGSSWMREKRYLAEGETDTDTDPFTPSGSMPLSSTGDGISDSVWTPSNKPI

SMILES	IK (%)
CCN(CC)c1nc(NCc2ccc(F)cc2)ccc1NC(=O)[C@@H]1C[C@H]1c1ccccc1 (relative stereo) [Compound 7, trans-2-Phenyl-cyclopropanecarboxylic acid [2-diethylamino-6-(4-fluoro-benzylamino)-pyridin-3-yl]-amide]	520%
CCN(CC)c1nc(NCc2ccc(F)cc2)ccc1NC(=O)[C@@H](C)c1ccccc1 [Compound 4, (S)—N-[2-Diethylamino-6-(4-fluoro-benzylamino)-pyridin-3-yl]-2-phenyl-propionamide]	334%
CCN(CC)c1nc(NCc2ccc(F)cc2)ccc1NC(=O)CC(C)(C)C [Compound 9, N-[2-Diethylamino-6-(4-fluoro-benzylamino)-pyridin-3-yl]-3,3-dimethyl-butyramide]	550%

Second part, the compound after the results:

IK (%)	SMILES
1247%	CCN(CC)c1nc(NCc2ccc(F)cc2)ccc1NC(=O)Cc1cc(F)cc(F)c1 [Compound 1, N-[2-Diethylamino-6-(4-fluoro-benzylamino)-pyridin-3-yl]-2-(3,5-difluoro-phenyl)-acetamide]
282%	CCN(CC)c1nc(NCc2ccc(F)cc2)ccc1NC(=O)Cc1ccc(C(F)(F)F)c(F)c1 [Compound 3, N-[2-Diethylamino-6-(4-fluoro-benzylamino)-pyridin-3-yl]-2-(3-fluoro-4-trifluoromethyl-phenyl)-acetamide]
